Assay results from article PMC11267572, “A Repurposed Drug Interferes with Nucleic Acid to Inhibit the Dual Activities of Coronavirus Nsp13” (ACS Chemical Biology, 2024).
“Also recorded” adds a separate entry of the source. Like-named read-outs stand apart in the source and are kept apart here.

Assays:
[1] = biological target: Nsp13; details: cited from earlier work
[2] = biological target: T1, SARS-CoV-2 Nsp13 (Severe acute respiratory syndrome coronavirus 2, UniProt P0DTD1); experiment: biochemical; details: for inhibition at 50 µM: read-out: inhibition of helicase activity
T1 construct: its nonstructural protein 13 (Nsp13) remains a clinically untapped target; His6-Zb-TEV (N, cleaved yes); host or cells: E. coli BL21 (DE3)

[3] = biological target: T1, SARS-CoV-2 Nsp13; format: binding; details: duplex-FL 100 nM, Nsp13 1 μM
[4] = system: Vero E6, Vero ACE2-TMPRSS2 and A549 ACE2 cells; details: t = 22 hr
[5] = system: Chinese hamster ovary (CHO) cells expressing CFTR or colon carcinoma cells; details: cited from earlier work
[6] = system: SARS-CoV-2; design: method as in PMID 35456026; details: micromolar concentrations, CFTR-expressing cells; cited from earlier work
[7] = biological target: T2, Hepatitis C Virus (HCV) RNA helicase NS3 (Hepatitis C virus genotype 1b, UniProt Q9WMX2); format: biochemical
T2 construct: A truncated form of the Hepatitis C NS3 helicase protein; His-SUMO (N, cleaved yes); made in house; host or cells: E. coli BL21 (DE3) per the methods text

[8] = system: duplex-FL (labeled duplex DNA); format: binding; details: duplex-FL 100 nM, 10% DMSO, no protein
[9] = system: Tte UvrD helicase; format: biochemical; details: 3.02 nM UvrD, 1 mM ATP, 65 °C, increasing concentrations
[10] = biological target: T1, SARS-CoV-2 Nsp13; format: biochemical
[11] = biological target: T1, SARS-CoV-2 Nsp13; format: biochemical; remark: listed apart in the source
[12] = biological target: T1, SARS-CoV-2 Nsp13; experiment: biochemical; details: for first-round screen, inhibition of Nsp13 ATPase activity (considered active): no detergent, t = 5 min, compound equimolar to ATP

T2 sequence (Q9WMX2 1193-1657): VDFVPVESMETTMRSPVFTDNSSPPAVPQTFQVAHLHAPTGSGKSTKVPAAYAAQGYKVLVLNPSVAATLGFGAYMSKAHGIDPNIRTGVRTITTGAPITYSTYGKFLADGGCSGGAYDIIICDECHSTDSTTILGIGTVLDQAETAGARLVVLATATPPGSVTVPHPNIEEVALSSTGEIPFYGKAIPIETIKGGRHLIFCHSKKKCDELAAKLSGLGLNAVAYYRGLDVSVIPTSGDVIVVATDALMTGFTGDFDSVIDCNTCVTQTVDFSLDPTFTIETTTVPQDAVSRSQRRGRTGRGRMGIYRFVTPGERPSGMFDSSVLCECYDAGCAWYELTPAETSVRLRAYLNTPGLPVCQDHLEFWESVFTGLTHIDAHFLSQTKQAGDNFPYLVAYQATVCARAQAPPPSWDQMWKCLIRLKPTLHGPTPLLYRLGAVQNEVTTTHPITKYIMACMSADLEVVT

O=C1O[C@H]2[C@@H]3OC(=O)c4cc(O)c(O)c(O)c4-c4c(O)c(O)c5oc(=O)c6c(c(O)c(O)c7oc(=O)c4c5c76)-c4c(cc(O)c(O)c4O)C(=O)OC[C@H]3OC(O)[C@@H]2OC(=O)c2cc(O)c(O)c(O)c2-c2c1cc(O)c(O)c2O (mixture of isomers) [punicalagin]
Kd [1]: ~0.02 µM

O=C(NCc1ccc(Cn2cc(Cl)cn2)cc1)c1nc(-c2ccc(C(F)(F)F)cc2)no1 [Analog 1]
IC50 [2]: 131 ± 53 µM | fold higher helicase IC50 than IOWH-032 ([2]; 3.12 nM Nsp13, 0.01% Tween-20): > 10 fold | inhibition at 50 µM [2]: > 25%

Cc1ccc(-c2cc(C(=O)NCc3ccc(Oc4ccccc4)cc3)no2)cc1C [Analog 2]
inhibition of helicase activity ([2]; 50 μM analog, 3.12 nM Nsp13, 0.01% Tween-20): no inhibition | displacement of duplex-FL probe [3]: no displacement of probe | toxicity against infection cell lines ([4]; up to 20 µM): did not show toxicity

Cc1ccc(COc2c(Br)cc(CNc3ccc(Oc4ccccc4)cc3)cc2Br)cc1 [Analog 5]
inhibition at 50 µM [2]: < 25%

O=C(Cn1cccc1-c1nc(-c2ccc(F)c(Br)c2)no1)NCc1ccc(F)cc1 [Analog 6]
inhibition at 50 µM [2]: < 25%

O=C(NCc1ccc(Oc2ccccc2)cc1)c1nc(-c2cc(Br)c(O)c(Br)c2)no1 [IOWH-032]
toxicity [5]: not toxic | reduction of SARS-CoV-2 viral loads compared to untreated cells [6]: > 2 log10 | concentration above which NS3 ATPase activity decreases ([7]; 250 nM NS3, 250 μM ATP): exceed 100 µM | sensitivity of NS3 ATPase activity ([7]; mid-micromolar concentrations of compound): nearly insensitive | interaction with duplex-FL probe alone [8]: does not interact with probe alone; also recorded: no direct interaction | reduction in cell viability ([4]; 4 μM, across all mammalian cell lines tested): ~50% | effect on UvrD ATPase activity (ATP consumption) [9]: is not affected; also recorded: still demonstrated ATPase activity | mode of helicase inhibition with respect to nucleic acid substrate [10]: mixed inhibition | mode of ATPase inhibition with respect to ATP [11]: uncompetitive

C=CCn1c(CSc2ccccc2[N+](=O)[O-])n[nH]c1=S [SSYA10-001]
inhibition of helicase activity [2]: inhibited

C[C@H](NC(=O)Cc1cc(F)cc(F)c1)C(=O)N[C@@H]1C(=O)N(C)c2ccccc2-c2ccccc21 [dibenzazepine]
ATPase inhibition on titration in the presence of detergent ([12]; Tween-20, up to high micromolar concentrations): no inhibition | first-round screen, inhibition of Nsp13 ATPase activity (considered active) [12]: active

CNC(=O)c1cc(COc2nnc(Nc3ccc(Cl)cc3)c3ccoc23)ccn1 [telatinib]
IC50 [2]: 20.4 ± 1.5 µM | IC50 ([12]; 25 nM Nsp13, 0.01% Tween-20, read-out: ATPase inhibition IC50): ~114 µM | first-round screen, inhibition of Nsp13 ATPase activity (considered active) [12]: active
